“And” between values parts separate entries of the source, which are not always exact repeats. Equal values may be shown once. Where a name gives a salt, the structure may show the parent alone.
Tests used:
[1] = system: embryo/fetal development in pregnant Sprague Dawley rats; settings: 6 mpk subcutaneously once every three days, Gestation Days 6-18, pregnant rats
Method: The objective of this study design was to evaluate the potential effects of disclosed compounds on embryo/fetal development when given subcutaneously to pregnant rats once every three days during the critical period of organogenesis (Gestation Days 6-18). Female, Sprague Dawley rats, approximately 10 weeks of age, time bred, were ordered from a certified vendor and housed individually housed in stainless steel cages suspended over flush pans, on a 12-hour light-dark cycle (0700-1900) at 20-26° C. and 30-70% humidity. Rats were fed a standard rodent chow and provided water ad libitum. Rats were received and housed in the facility for a period of approximately 1 to 2 days.
Compounds were formulated using 100% DMSO mixed in Sterile Water for Injection, resulting in 2% DMSO solution in water. If necessary, due to limited solubility of a test article, a higher percentage of DMSO solution in water was used. Groups of 8 mated and presumed pregnant female rats were given subcutaneous doses of vehicle or test article, once every three days, beginning on Gestation Day 6 and ending on Gestation Day 18 (Days 6, 9, 12, 15, and 18), maintained two more days, and then euthanized and necropsied on Gestation Day 20. Body weights was recorded for all animals on Gestation Days 5 (purpose of randomization), 6, 9, 12, 15, 18, and 20 (scheduled euthanasia). Food consumption by weight was recorded on Gestation Days 6, 9, 12, 15, 18, and 20 (scheduled termination).
At necropsy, the dams were examined visually for external abnormalities including palpable masses. The abdominal, thoracic, and cranial cavities and their contents were examined for abnormalities and findings will be recorded. The reproductive tract were examined to record the number of ovarian corpora lutea, the number and location of uterine implantation sites noting the position of the cervix, and the number of early resorptions, late resorptions, live fetuses, and dead fetuses. For dead fetuses and late resorptions, crown-to-rump length and weight were recorded, if possible, and the fetus was discarded. For viable fetuses, weight, sex, and grossly visible external abnormalities were recorded.

[2] = system: Diet Induced Obese (DIO) C57BL/6 mice; assay: 10 day DIO mouse model (body weight, food intake, hematology, blood chemistry); assay type: in vivo
From the text: The objective of this study design was to investigate the efficacy of disclosed compounds in a 10 day DIO mouse model. Effects on body weight, food intake, hematology and blood chemistry were the primary readouts of this study design. […] Mice were fed Research Diets D12492 (60% Kcal fat, 20% Kcal carbohydrate and 20% protein) and provided water ad libitum. DIO mice were received and housed in the facility for approximately two weeks prior to the start of test article administration. On Day −4 or −3, mice were randomized into study groups based on body weight and body weights were continued to be recorded daily for the duration of the study. Daily food intake was assessed starting on Study Day −2 by weighing of the food with hopper together to avoid loss of food in transfer.
(§1) Compounds were formulated into a 100% DMSO stock (at 9 mg/mL) prior to the start, and further diluted into the target working concentration using the vehicle of 10% DMSO in water. Prior to test article administration, starting on Day −3 a dosing acclimation occured with all animals receiving a subcutaneous injection of vehicle (10% DMSO) only for 3 days. Starting on Day 1, test compounds or vehicle were administered based on individual body weight, subcutaneously, once a day for 10 days. All mice were sacrificed on Day 11, 24 hours following the final dosing on Day 10. After sacrifice, whole blood was collected and analyzed for hematology and blood chemistry parameters.
(§2) Compounds were tested vs. vehicle at various doses (1.0, 0.5, 0.3, 0.1, 0.03 mpk sc (mg per kg animal weight delivered subcutaneously), and the results are shown in Table 2 below.

[3] = system: Sprague Dawley rats on high fat diet (DIO); assay: 11 day rat DIO model (body weight, food intake, hematology, blood chemistry); assay type: in vivo
From the text: The objective of this study design is to investigate the efficacy of disclosed compounds in an 11 day rat DIO model used to screen compounds for pharmacologic efficacy on endpoints related to obesity and metabolism. Effects on body weight, food intake, hematology and blood chemistries were the primary readouts of this study design. […] Rats were fed Research Diets D12451 (45% High Fat) and provided water ad libitum. Rats were received and housed in the facility for at least two or three weeks prior to start of test article administration. On Day −4 or −3, rats were randomized into study groups based on body weight and body weights were continued to be recorded daily for the duration of the study. Daily food intake was assessed starting on Study Day −2 by weighing the hopper including the food to avoid loss of food in transfer.
as §1, with “for 11” for “for 10”, “All animals” for “All mice”, “11, approximately 2” for “11, 24”, “Day 11.” for “Day 10.”
as §2

SMILES	Rat Embryofetal @6 mpk [1]	other results
CCN(CC)CCC1CN(C(=O)O[C@@H]2CC[C@]3(CO3)[C@@H]([C@@]3(C)O[C@@H]3CC=C(C)C)[C@@H]2OC)C1 [Example 103, (3R,4S,5S,6R)-5-methoxy-4-((2R,3R)-2-methyl-3-(3-methylbut-2-enyl)oxiran-2-yl)-1-oxaspiro[2.5]octan-6-yl 3-(2-(diethylamino)ethyl)azetidine-1-carboxylate]	Positive	–
CO[C@@H]1[C@H](OC(=O)/C=C/c2ccc(OCCN(C)C)cc2)CC[C@]2(CO2)[C@H]1[C@@]1(C)O[C@@H]1CC=C(C)C [compound A, [(3R,6R,7S,8S)-7-methoxy-8-[(2R,3R)-2-methyl-3-(3-methylbut-2-enyl)oxiran-2-yl]-2-oxaspiro[2.5]octan-6-yl] (E)-3-[4-[2-(dimethylamino)ethoxy]phenyl]prop-2-enoate, reference compound]	Positive	–
CNC(=O)OC1CN(C(=O)O[C@@H]2CC[C@]3(CO3)[C@@H]([C@@]3(C)O[C@@H]3CC=C(C)C)[C@@H]2OC)C1 [Example 74, (3R,4S,5S,6R)-5-methoxy-4-((2R,3R)-2-methyl-3-(3-methylbut-2-enyl)oxiran-2-yl)-1-oxaspiro[2.5]octan-6-yl 3-(methylcarbamoyloxy)azetidine-1-carboxylate]	Negative	–
CO[C@@H]1[C@H](OC(=O)N2CC(CCN3CC4CCC(C3)O4)C2)CC[C@]2(CO2)[C@H]1[C@@]1(C)O[C@@H]1CC=C(C)C [Example 33, (4S,5S,6R)-5-methoxy-4-((2R,3R)-2-methyl-3-(3-methylbut-2-enyl)oxiran-2-yl)-1-oxaspiro[2.5]octan-6-yl 3-(2-(8-oxa-3-azabicyclo[3.2.1]octan-3-yl)ethyl)azetidine-1-carboxylate]	–	percent body weight loss vs vehicle at 0.3 mg/kg ([2]; 240 h, DIO mouse, 0.3 mpk sc, once a day for 10 days, read-out: DIO Mouse 10-day weight loss vs vehicle at indicated dose): 15.9%
CO[C@@H]1[C@H](OC(=O)N2CC(OC(=O)N3CCN(C)CC3)C2)CC[C@]2(CO2)[C@H]1[C@@]1(C)O[C@@H]1CC=C(C)C [Example 78, 1-(((3R,4S,5S,6R)-5-methoxy-4-((2R,3R)-2-methyl-3-(3-methylbut-2-enyl)oxiran-2-yl)-1-oxaspiro[2.5]octan-6-yloxy)carbonyl)azetidin-3-yl 4-methylpiperazine-1-carboxylate]	Positive	–
CCN(CC)CCNC(=O)CCC1CN(C(=O)O[C@@H]2CC[C@]3(CO3)[C@@H]([C@@]3(C)O[C@@H]3CC=C(C)C)[C@@H]2OC)C1 [Example 88, (3R,4S,5S,6R)-5-methoxy-4-((2R,3R)-2-methyl-3-(3-methylbut-2-enyl)oxiran-2-yl)-1-oxaspiro[2.5]octan-6-yl 3-(3-(2-(diethylamino)ethylamino)-3-oxopropyl)azetidine-1-carboxylate formate]	Positive	DIO Rat 11-day weight loss vs vehicle at indicated dose ([3]; rat, in vivo, sc, 0.3 mg/kg): 4.4%; DIO Mouse 10-day weight loss vs vehicle at indicated dose ([2]; mouse, in vivo, sc, 0.3 mg/kg): 9%
CO[C@@H]1[C@H](OC(=O)N2CC(CCN3CCC(O)CC3)C2)CC[C@]2(CO2)[C@H]1[C@@]1(C)O[C@@H]1CC=C(C)C [Example 7, (3R,4S,5S,6R)-5-methoxy-4-((2R,3R)-2-methyl-3-(3-methylbut-2-en-1-yl)oxiran-2-yl)-1-oxaspiro[2.5]octan-6-yl 3-(2-(4-hydroxypiperidin-1-yl)ethyl)azetidine-1-carboxylate]	–	DIO Mouse 10-day weight loss vs vehicle at indicated dose ([2]; DIO mouse, 0.3 mpk sc, once a day for 10 days): 1.8%
CCN(CC)CCC1CCN1C(=O)O[C@@H]1CC[C@]2(CO2)[C@@H]([C@@]2(C)O[C@@H]2CC=C(C)C)[C@@H]1OC (stereo partly drawn) [Example 106, (3R,4S,5S,6R)-5-methoxy-4-((2R,3R)-2-methyl-3-(3-methylbut-2-enyl)oxiran-2-yl)-1-oxaspiro[2.5]octan-6-yl 2-(2-(diethylamino)ethyl)azetidine-1-carboxylate]	–	DIO Rat 11-day weight loss vs vehicle at indicated dose ([3]; DIO rat, 0.5 mpk sc, once a day for 11 days): 4.82%; DIO Mouse 10-day weight loss vs vehicle at indicated dose ([2]; DIO mouse, 0.1 mpk sc, once a day for 10 days): 2%; DIO Mouse 10-day weight loss vs vehicle at indicated dose ([2]; DIO mouse, 0.3 mpk sc, once a day for 10 days, 0.3 mg/kg): 10.8% and 0.8%
CO[C@@H]1[C@H](OC(=O)N2CC(OC(=O)N3CCN(CC(F)(F)F)CC3)C2)CC[C@]2(CO2)[C@H]1[C@@]1(C)O[C@@H]1CC=C(C)C [Example 81, 1-(((3R,4S,5S,6R)-5-methoxy-4-((2R,3R)-2-methyl-3-(3-methylbut-2-enyl)oxiran-2-yl)-1-oxaspiro[2.5]octan-6-yloxy)carbonyl)azetidin-3-yl 4-(2,2,2-trifluoroethyl)piperazine-1-carboxylate]	Positive	–
CO[C@@H]1[C@H](OC(=O)N2CC(CCN3CCOCC3)C2)CC[C@]2(CO2)[C@H]1[C@@]1(C)O[C@@H]1CC=C(C)C [Example 1, (3R,4S,5S,6R)-5-methoxy-4-((2R,3R)-2-methyl-3-(3-methylbut-2-en-1-yl)oxiran-2-yl)-1-oxaspiro[2.5]octan-6-yl 3-(2-morpholinoethyl)azetidine-1-carboxylate]	Negative	–
CO[C@@H]1[C@H](OC(=O)N2CC(CCN3CC(F)(F)C3)C2)CC[C@]2(CO2)[C@H]1[C@@]1(C)O[C@@H]1CC=C(C)C [Example 2, (3R,4S,5S,6R)-5-methoxy-4-((2R,3R)-2-methyl-3-(3-methylbut-2-enyl)oxiran-2-yl)-1-oxaspiro[2.5]octan-6-yl 3-(2-(3,3-difluoroazetidin-1-yl)ethyl)azetidine-1-carboxylate]	Negative	–
CO[C@@H]1[C@H](OC(=O)N2CC(Cc3ccc(C)nc3)C2)CC[C@]2(CO2)[C@H]1[C@@]1(C)O[C@@H]1CC=C(C)C [Example 101, (3R,4S,5S,6R)-5-methoxy-4-((2R,3R)-2-methyl-3-(3-methylbut-2-enyl)oxiran-2-yl)-1-oxaspiro[2.5]octan-6-yl 3-((6-methylpyridin-3-yl)methyl)azetidine-1-carboxylate]	Positive	–
CCN(CC)CCCC1CN(C(=O)O[C@@H]2CC[C@]3(CO3)[C@@H]([C@@]3(C)O[C@@H]3CC=C(C)C)[C@@H]2OC)C1 [Example 104, (3R,4S,5S,6R)-5-methoxy-4-((2R,3R)-2-methyl-3-(3-methylbut-2-enyl)oxiran-2-yl)-1-oxaspiro[2.5]octan-6-yl 3-(3-(diethylamino)propyl)azetidine-1-carboxylate]	Positive	–

From patent US20190084968A1, “FUMAGILLOL HETEROCYCLIC COMPOUNDS AND METHODS OF MAKING AND USING SAME” (Zafgen, Inc., priority 2015, published 2019)
